Experimental data from ChEMBL document CHEMBL1144007, “Activity of Mannich bases of 7-hydroxycoumarin against Flaviviridae” (Bioorg Med Chem, 2008).
The source made the active and inactive calls.

What was measured:
[1] = test system: Respiratory syncytial virus; test: Antiviral activity against RSV A2 in VERO76 cells assessed as reduction of plaque number by MTT method; assay type: functional, organism-based; settings: human respiratory syncytial virus, A2, Vero 76
Coxsackievirus B2 = test: Antiviral activity against coxsackie B2 virus; assay type: functional, organism-based
Poliovirus 1 = test: Antiviral activity against Human poliovirus 1 Sabin; assay type: functional
Reovirus sp. = test: Antiviral activity against Reovirus; assay type: functional, organism-based
Yellow fever virus = test: Antiviral activity against YFV in BHK cells assessed as protection from virus-induced cytopathogenicity by MTT method; assay type: functional, organism-based
[2] = test system: Bovine viral diarrhea virus 1; test: Antiviral activity against BVDV NADL in MDBK cells assessed as protection from virus-induced cytopathogenicity by MTT method; assay type: functional, organism-based; settings: Bovine viral diarrhea virus isolates and strains
Vaccinia virus = test: Antiviral activity against vaccinia virus; assay type: functional, organism-based; settings: Orthopoxvirus vaccinia
[3] = test system: Vesicular stomatitis virus; test: Antiviral activity against vesicular stomatitis virus; assay type: functional, organism-based
[4] = Cytotoxicity against human MT4 cells after 96 hrs by MTT method; assay type: cell-based
[5] = test system: Human immunodeficiency virus 1; test: Antiviral activity against HIV1; assay type: functional, organism-based

SMILES	EC50 [1] [µM]	Activity (Coxsackievirus B2)	Activity (Poliovirus 1)	Activity (Reovirus sp.)	EC50 (Yellow fever virus) [µM]	EC50 [2] [µM]	Activity (Vaccinia virus)	Activity [3]	CC50 at 96 h [4] [µM]	Activity [5]
O=c1ccc2ccc(O)c(CN3CCCCC3)c2o1	> 100	inactive	inactive	inactive	> 100	> 100	inactive	inactive	> 100	inactive
Cc1cc(=O)oc2c(CN3CCN(Cc4ccc5c(c4)OCO5)CC3)c(O)ccc12	> 100		inactive	inactive	> 100	75	inactive	inactive	72	inactive
Cc1cc(=O)oc2c(CN3CCc4ccccc4C3)c(O)ccc12	> 100		inactive	inactive	> 100	> 100	inactive	inactive	> 100	inactive
CC(=O)Oc1ccc2c(C)cc(=O)oc2c1Cc1c(-c2ccccc2)[nH]c2ccccc12	> 100		inactive	inactive	> 100	> 100	inactive	inactive	> 100	inactive
COc1ccc2c(=O)c(Cc3c(OC(C)=O)ccc4ccc(=O)oc34)c(N(C)C)oc2c1	> 25		inactive	inactive	> 100	> 51	inactive	inactive	26	inactive
CC(=O)Oc1ccc2ccc(=O)oc2c1Cc1c(N(C)C)oc2ccc3ccccc3c2c1=O	> 30		inactive	inactive	> 52	> 48	inactive	inactive	80	inactive
CCCOc1ccc2c(C)cc(=O)oc2c1CN1CCN(c2ccc(C(C)=O)cc2)CC1	> 100		inactive	inactive	> 100	8	inactive	inactive	25	inactive
COCCN(CCOC)c1oc2cc(OC)ccc2c(=O)c1Cc1c(OC(C)=O)ccc2ccc(=O)oc12	7		inactive	inactive	> 100	> 100	inactive	inactive	> 100	inactive
O=c1ccc2ccc(O)c(CN3CCN(C/C=C/c4ccccc4)CC3)c2o1	> 100		inactive	inactive	> 59	> 24	inactive	inactive	5	inactive
CCN(CC)c1oc2cc(OC)ccc2c(=O)c1Cc1c(OC(C)=O)ccc2ccc(=O)oc12	20		inactive	inactive	> 100	> 100	inactive	inactive	83	inactive
Cc1cc(=O)oc2c(CN(C)CC(=O)O)c(O)ccc12	> 100		inactive	inactive	> 100	> 100	inactive	inactive	> 100	inactive
O=C(Oc1ccc2ccc(=O)oc2c1CN1CCc2ccccc2C1)c1ccccc1	1		inactive	inactive	> 100	> 100	inactive	inactive	> 100	inactive
CCC(=O)Oc1ccc2ccc(=O)oc2c1Cc1c[nH]c2ccccc12	> 54		inactive	inactive	> 52	≥ 55	inactive	inactive	65	inactive
CC(=O)Oc1ccc2ccc(=O)oc2c1Cc1c(N2CCCCC2)oc2ccc3ccccc3c2c1=O	40		inactive	inactive	77	59	inactive	inactive	> 100	inactive
COCCN(CCOC)c1oc2cc(OC)ccc2c(=O)c1Cc1c(OC(C)=O)ccc2c(C)cc(=O)oc12	5		inactive	inactive	> 100	61	inactive	inactive	> 100	inactive
CCC(=O)Oc1ccc2ccc(=O)oc2c1Cc1c(-c2ccccc2)[nH]c2ccccc12	> 100		inactive	inactive	> 82	> 100	inactive	inactive	> 100	inactive
CC(=O)c1ccc(N2CCN(Cc3c(O)ccc4c(C)cc(=O)oc34)CC2)cc1	> 100		inactive	inactive	> 100	> 100	inactive	inactive	59	inactive
CCCOc1ccc2c(C)cc(=O)oc2c1CN1CCc2ccccc2C1	> 93		inactive	inactive	> 100	20	inactive	inactive	> 100	inactive
CN1CCN(Cc2c(O)ccc3ccc(=O)oc23)CC1	> 100		inactive	inactive	> 100	> 100	inactive	inactive	> 100	inactive
O=c1cnn([C@@H]2O[C@H](CO)[C@@H](O)[C@H]2O)c(=O)[nH]1 [6-AZAURIDINE]	1		inactive	inactive	25	> 25	inactive	inactive	0.2	inactive
Cc1cc(=O)oc2c(CN3CCOCC3)c(OC(=O)c3ccccc3)ccc12	> 100		inactive	inactive	> 100	> 100	inactive	inactive	> 100	inactive
